Measured values published in patent US12350310B2, “Treatment and prevention of nephrotoxin-induced kidney injuries” (Farsight Medical Technology (Shanghai) Co., Ltd., priority 2019, dated 2025).
Several values for one entry are separate records, joined by “and”; a condition that tells them apart may be missing. Identical values can stand only once. Entries after “also recorded” stand apart in the source; their conditions may differ.

Assays:
[1] = test system: rhabdomyolysis-induced acute kidney injury; experiment: Rhabdomyolysis-induced (glycerine) acute kidney injury model in rats (Example 3); type: in vivo, male SD rats; details: Compound I 3 mg/kg IP at 6 h and 1 h prior to glycerine, kidneys after 48 h, Group 3, Mean (SEM)
Protocol: The efficacy of Compound I in protection against rhabdomyolysis-induced acute kidney injury was tested in a model study in male SD rats. The acute kidney injury model was induced in the rats by bilateral intra-muscular injection of 50% Glycerine (at a dose volume of 10 ml/kg body weight, divided into two sites of injection at each limb). Glycerine induces physiological conditions which are closely associated with rhabdomyolysis, such as myoglobinuria, tubular necrosis, and renal vasoconstriction.
Three groups formed part of the study: sham, vehicle, and compound I. Except for the sham group, where no glycerine was injected, animals were dosed twice intraperitoneally with either Compound I or Vehicle: at 6 h and at 1 h prior to receiving the glycerine injection (see Table 3).
After 48 h, the animals were euthanized, and their right and left kidneys were fixed in formalin 10%. Each kidney was cut longitudinally into 2 halves, both placed in a cassette and processed in paraffin. Sections were cut and stained using Hematoxylin and Eosin (H&E). The kidney sections were examined and histopathological analysis and scoring was performed for tubular, endothelial, glomerular and tubulointerstitial damage based on scoring systems in the art (e.g. Khalid U. et al, Journal of Histology & Histopathology. Volume 3, Article 1. 2016). Tubular epithelial necrosis scoring was based on the total number of tubules in the outer stripe of the outer medulla (OSOM). Tubulointerstitial damage was scored as a total percentage of the entire tissue observed in the section. The scores of each parameter were also added to provide a total histopathological score.
Table 4 summarizes the histopathology scoring results for the test groups sham (Group 1), vehicle (Group 2) and compound I (Group 3). All data are presented as Mean±SEM. All treatment groups were compared to the sham group (Group 1) or to the vehicle group (Group 2) using Student's T-Test. A p value <0.05 is considered to represent a significant difference.

[2] = test system: gentamicin-induced acute kidney injury; experiment: Gentamicin-induced acute kidney injury model in rats, pathology and dose response (Example 2); type: in vivo; details: Compound I 0.5, 3, 9 mg/kg i.p.
Protocol: A further study in rats was carried out essentially in analogy to the general study protocol described in Example 1, to further assess the efficacy and impact of Compound I against gentamicin-induced acute kidney injury and to test the dose response. The tissue pathology, as well as the additional biomarkers were assessed.
Five groups formed part of the study (See Table 2): control (Group 1), vehicle (Group 2), and animals receiving Compound I at doses of 0.5 mg/kg (Group 3), 3 mg/kg (Group 4) and 9 mg/kg (Group 5). Except for the control Group 1, gentamicin (100 mg/kg) was given by intraperitoneal injection for 10 consecutive days, once daily from Day 1 to Day 10.
The vehicle, or Compound I formulated in the vehicle was administered intraperitoneally (i.p.) for 10 days, from Day 1 to Day 10 of the study (total 11 times). On initiation of the experiment (Day 1), Compound I at the specified dose amounts was administered by i.p. injection 6 h, and 1 h before the gentamicin injection to the animals in groups 3, 4 and 5. Thereafter, on Day 2 to Day 10, Compound I was administered once daily at the specified dose to said study groups, approximately 1 h prior to the gentamicin injection. On day 10, the rats were euthanized. Blood samples were collected, and the kidney tissues (both left and right kidneys) of the rats were also taken for H&E staining. Histopathological evaluation was performed on the kidney sections using standard methods and scoring criteria in the art to assess the level of tissue damage caused by the gentamicin-induced acute kidney injury. The kidney sections were assessed and scored for: necrosis of renal tubules, tubular dilation, loss of tubular brush border, cast formation in the renal tubules, and interstitial inflammatory cell (neutrophil) infiltration. The scoring was performed on a scale of 0 to 4 (0=0% i.e. no observation, 1≤5%, 2=5-25%, 3=25-50%, 4≥50% i.e. extensive, severe, or widely visible damage) on both left and right kidney tissues. The scoring was accumulated to provide a total combined score.
Kidney function analysis based on blood urea nitrogen (BUN) and creatinine in the serum was performed. Assay in plasma for biomarkers NGAL (neutrophil gelatinase-associated lipocalin) and Kim-1 (kidney injury molecule-1) was also determined.

[3] = test system: gentamicin-induced acute kidney injury; experiment: Gentamicin-induced acute kidney injury model in rats (Example 1); type: in vivo, male Wistar rats; details: Compound I 3 mg/kg i.p. before gentamicin 100 mg/kg i.p. daily
Protocol: Efficacy of the compound of Compound I against gentamicin-induced acute kidney injury was tested in a model study with male Wistar rats (180-220 g) randomly grouped based on body weights. Three groups formed part of the study: control, vehicle, and compound I (see Table I). Except for the control group, gentamicin (100 mg/kg) was given by intraperitoneal injection for 10 consecutive days, once daily from Day 1 to Day 10. The first day of gentamicin injection was designated as Day 1 of the study.
The vehicle, or the Compound I formulated in the vehicle was administered intraperitoneally (i.p.) for 10 days, from Day 1 to Day 10 of the study (total 11 times). On initiation of the experiment (Day 1), Compound I (3 mg/kg) was administered by i.p. injection 6 h, and 1 h before the gentamicin injection. Thereafter, on Day 2 to Day 10, Compound I was administered once daily (3 mg/kg) 1 h prior to the gentamicin injection. Body weights of the rats were recorded daily. On the day 10, the animals were euthanized and blood sample was collected via cardiac punction. Serum was collected and stored at −80° C. for kidney function analysis of blood urea nitrogen (BUN) and creatinine.

[4] = especially G4 and G5, versus G2 vehicle
[5] = gentamicin 100 mg/kg daily, Day 10, versus G2 vehicle
[6] = gentamicin 100 mg/kg daily, Day 10, versus Group 2 vehicle

With `C/C=C/C[C@@H](C)[C@@H](O)[C@H]1C(=O)N[C@@H](CC)C(=O)N(C)[C@H](OCCN(C)C)C(=O)N(C)[C@@H](CC(C)C)C(=O)N[C@@H](C(C)C)C(=O)N(C)[C@@H](CC(C)C)C(=O)N[C@@H](C)C(=O)N[C@H](C)C(=O)N(C)[C@@H](CC(C)C)C(=O)N(C)[C@@H](CC(C)C)C(=O)N(C)[C@@H](C(C)C)C(=O)N1C` [Compound I, [(R)-2′ (2-dimethylaminoethoxy)-Sar]^3 cyclosporin A] the “ED (Endothelial damage) score, Mean” value [1] was 0.00 a.u, the “GD (Glomerular damage) score, Mean” value [1] was 0.00 a.u and the “TD (Tubular Damage) score, Mean” value [1] was 1.10±0.07 a.u. and 1.10## a.u. The “TID (Tubulointersititial damage) score, Mean” value ([1]; p<0.01 vs. vehicle) was 1.15±0.08 a.u. and 1.15##** a.u, the “Total Histopathological Score, Mean” value ([1]; p<0.01 vs. vehicle) was 2.15±0.08 a.u. and 2.15##** a.u and the “total acute kidney injury pathology scoring of kidney tissue (FIG. 4A)” value ([2]; especially 3 and 9 mg/kg groups, gentamicin 100 mg/kg daily, Day 10, versus G2 vehicle) was “statistically significant impact in terms of generally reducing the severity of physical injury”. The “KIM-1 biomarker level in plasma at endpoint (FIG. 7)” value [2, 4] was “statistically relevant reduced levels”, the “NGAL biomarker level in plasma at endpoint (FIG. 8)” value [2, 4] was “statistically relevant reduced levels” and the “severity of neutrophil infiltration (FIG. 4B)” value [2, 5] was “markedly reduced”. The “severity of tubular dilation (FIG. 4B)” value [2, 5] was “markedly reduced”, the “serum BUN level at endpoint (FIG. 6)” value [2, 6] was “lower” and the “serum creatinine level at endpoint (FIG. 5)” value [2, 6] was “lower”. The “rate of body weight gain over the 10-day study period (FIG. 1A)” value ([3]; Day 1-10, versus vehicle group) was “faster rate of body weight gain”, the “overall body-weight change from baseline measurement on Day 1 (FIG. 1B)” value ([3]; Day 1 to Day 10, versus vehicle group) was “higher compared to the rats only treated with vehicle” and the “serum blood urea nitrogen (BUN) level at endpoint (FIG. 2)” value ([3]; Day 10 serum) was “lower, compared to levels determined for the vehicle group; also recorded: comparable or similar levels as measured for the control group”. The “serum creatinine level at endpoint (FIG. 3)” value ([3]; Day 10 serum) was “lower, compared to levels determined for the vehicle group; also recorded: comparable or similar levels as measured for the control group”.
